Results as given in patent US8975400B2, “2,3-dihydroimidazo[1, 2-c] pyrimidin-5(1 H)-one compounds use as LP-PLA2 inhibitors” (Glaxo Group Limited, priority 2011, dated 2015).
Where a name gives a salt, the structure may show the parent alone.

Legend:
[1] = molecular target: T1, recombinant human Lp-PLA2 (Homo sapiens, UniProt Q13093); experiment: Recombinant human Lp-PLA2 assay (rhLp-PLA2, PED6 assay); assay type: biochemical; conditions: recombinant human Lp-PLA2, PED6 substrate; upper limit for pIC50 in this assay is 9.3
T1 sequence (Q13093 22-441): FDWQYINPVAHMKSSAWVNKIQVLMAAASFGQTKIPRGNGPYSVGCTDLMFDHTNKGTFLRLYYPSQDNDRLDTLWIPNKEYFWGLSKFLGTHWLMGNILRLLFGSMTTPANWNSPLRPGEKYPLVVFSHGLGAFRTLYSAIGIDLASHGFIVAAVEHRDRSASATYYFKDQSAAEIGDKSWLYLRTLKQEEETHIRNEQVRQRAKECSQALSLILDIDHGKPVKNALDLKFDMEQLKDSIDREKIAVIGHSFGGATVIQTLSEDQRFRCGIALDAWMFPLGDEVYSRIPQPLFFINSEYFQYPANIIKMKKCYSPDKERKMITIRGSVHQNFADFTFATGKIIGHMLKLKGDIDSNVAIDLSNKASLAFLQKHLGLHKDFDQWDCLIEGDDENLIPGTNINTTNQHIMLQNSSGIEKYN
In short: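 Compound preincubated 30 min with rhLp-PLA2 (4 nM or 110 pM) in 50 mM HEPES pH 7.4, 150 mM NaCl, 1 mM CHAPS, then PED6 substrate (4 μM or 5 μM) added. After 20 min at room temperature protected from light, fluorescence read at ex 480/em 540. pIC50 derived from serial-dilution curves.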

Lp-PLA2 in human plasma = molecular target: T2, Lp-PLA2 in human plasma (Homo sapiens, UniProt Q13093); experiment: Lp-PLA2 human plasma assay (Thio-PAF assay); assay type: biochemical; conditions: pooled human plasma, 2-thio-PAF substrate; read-out: pIC50 in the thio-PAF assay (converted)
T2 construct: This assay may detect the activity of Lp-PLA2 in human plasma; from tissue; host or cells: pooled human plasma
T2 sequence (Q13093 22-441): T1 sequence (Q13093 22-441)
In short: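 Pooled human plasma preincubated 30 min with serially diluted compounds, then 2-thio-PAF substrate with CPM and NEM added in 50 mM HEPES pH 7.4, 150 mM NaCl, 1 mM CHAPS. TFA-quenched after 2 min, 40 min at RT, fluorescence ex 380/em 485; pIC50 from curve fit.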

Compound	IC50 [1] [µM]	IC50 (Lp-PLA2 in human plasma) [µM]
CN1CCn2c1cc(OCc1ccc(Oc3ccc(Cl)nc3)c(C#N)c1)nc2=O [Example 100, 2-((6-chloropyridin-3-yl)oxy)-5-(((1-methyl-5-oxo-1,2,3,5-tetrahydroimidazo[1,2-c]pyrimidin-7-yl)oxy)methyl)benzonitrile]	≤ 0.01	≤ 1
O=c1nc(OCc2ccc(Oc3ccnc(C(F)(F)F)c3)c(F)c2)cc2n1CCN2 [Example 119, 7-((3-fluoro-4-((2-(trifluoromethyl)pyridin-4-yl)oxy)benzyl)oxy)-2,3-dihydroimidazo[1,2-c]pyrimidin-5(1H)-one]	0.00251	≤ 0.1
CN1CCn2c1cc(OCc1ccc(Oc3ccnc(C(F)(F)F)c3)cc1)nc2=O [Example 123, 1-methyl-7-((4-((2-(trifluoromethyl)pyridin-4-yl)oxy)benzyl)oxy)-2,3-dihydroimid-azo[1,2-c]pyrimidin-5(1H)-one]	≤ 0.01	≤ 1
N#Cc1cc(COc2cc3n(c(=O)n2)CCN3)ccc1Oc1ccc(C(F)(F)F)nc1 [Example 93, 5-(((5-oxo-1,2,3,5-tetrahydroimidazo[1,2-c]pyrimidin-7-yl)oxy)methyl)-2-((6-(trifluoromethyl)pyridin-3-yl)oxy)benzonitrile, trifluoroacetic acid salt]	≤ 0.01	≤ 0.1
CN1CCn2c1cc(OCc1cc(F)c(Oc3cccc(C(F)(F)F)c3)c(F)c1)nc2=O [Example 102, 7-((3,5-difluoro-4-(3-(trifluoromethyl)phenoxy)benzyl)oxy)-1-methyl-2,3-dihydroimidazo[1,2-c]pyrimidin-5(1H)-one]	≤ 0.001	≤ 0.1
CN1CCn2c1cc(OCc1ccc(Oc3ccc(C#N)c(F)c3)c(F)c1)nc2=O [Example 136, 2-fluoro-4-(2-fluoro-4-(((1-methyl-5-oxo-1,2,3,5-tetrahydroimidazo[1,2-c]pyrimidin-7-yl)oxy)methyl)phenoxy)benzonitrile]	≤ 0.01	≤ 1
CN1CCn2c1cc(OCc1ccc(Oc3ccc(Cl)c(C(F)(F)F)c3)c(C#N)c1)nc2=O [Example 101, 2-(4-chloro-3-(trifluoromethyl)phenoxy)-5-(((1-methyl-5-oxo-1,2,3,5-tetrahydro-imidazo[1,2-c]pyrimidin-7-yl)oxy)methyl)benzonitrile, trifluoroacetic acid salt]	≤ 0.001	≤ 0.1
CN1CCn2c1cc(OCc1cc(F)c(Oc3ccc(C#N)c(C(F)(F)F)c3)c(F)c1)nc2=O [Example 144, 4-(2,6-difluoro-4-(((1-methyl-5-oxo-1,2,3,5-tetrahydroimidazo[1,2-c]pyrimidin-7-yl)oxy)methyl)phenoxy)-2-(trifluoromethyl)benzonitrile]	< 0.000501	≤ 0.1
CN1CCn2c1cc(OCc1ccc(Oc3ccc(F)c(C#N)c3)c(F)c1)nc2=O [Example 139, 2-fluoro-5-(2-fluoro-4-(((1-methyl-5-oxo-1,2,3,5-tetrahydroimidazo[1,2-c]pyrimidin-7-yl)oxy)methyl)phenoxy)benzonitrile]	≤ 0.01	≤ 1
CN1CCn2c1cc(OCc1ccc(Oc3ccnc(C#N)c3)c(F)c1)nc2=O [Example 129, 4-(2-fluoro-4-(((1-methyl-5-oxo-1,2,3,5-tetrahydroimidazo[1,2-c]pyrimidin-7-yl)oxy)methyl)phenoxy)picolinonitrile, trifluoroacetic acid salt]	≤ 0.01	≤ 1

Now from value to compound:

IC50 [1] [µM]	IC50 (Lp-PLA2 in human plasma) [µM]	Compound
≤ 0.01	≤ 1	CN1CCn2c1cc(OCc1ccc(Oc3cc(F)c(F)c(F)c3)c(F)c1)nc2=O [Example E42, 7-((3-fluoro-4-(3,4,5-trifluorophenoxy)benzyl)oxy)-1-methyl-2,3-dihydroimi-dazo[1,2-c]pyrimidin-5(1H)-one]
≤ 0.01	≤ 1	CN1CCn2c1cc(OCc1ccc(Oc3ccc(C(F)(F)F)nc3)c(F)c1)nc2=O [Example E3, 7-((3-fluoro-4-((6-(trifluoromethyl)pyridin-3-yl)oxy)benzyl)oxy)-1-methyl-2,3-dihydroimidazo[1,2-c]pyrimidin-5(1H)-one]
≤ 0.001	≤ 1	CN1CCn2c1cc(OCc1ccc(Oc3ccc(Br)c(F)c3)c(C#N)c1)nc2=O [Example E70, 2-(4-bromo-3-fluorophenoxy)-5-(((I-methyl-5-oxo-1,2,3,5-tetrahydroimidazo[1,2-c]pyrimidin-7-yl)oxy)methyl)benzonitrile]
≤ 0.01	≤ 1	CN1CCn2c1cc(OCc1ccc(Oc3cnc(F)c(F)c3)c(C#N)c1)nc2=O [Example E73, 2-((5,6-difluoropyridin-3-yl)oxy)-5-(((1-methyl-5-oxo-1,2,3,5-tetrahydroimidazo[1,2-c]pyrimidin-7-yl)oxy)methyl)benzonitrile]
≤ 0.01	≤ 0.1	CN1CCn2c1cc(OCc1ccc(Oc3ccc(Cl)c(C(F)(F)F)c3)cc1)nc2=O [Example E5, 7-((4-(4-chloro-3-(trifluoromethyl)phenoxy)benzyl)oxy)-1-methyl-2,3-dihydroimidazo[1,2-c]pyrimidin-5(1H)-one]
≤ 0.01	≤ 1	CN1CCn2c1cc(OCc1cc(F)c(Oc3ccc(F)c(F)c3)c(F)c1)nc2=O [Example E75, 7-((4-(3,4-difluorophenoxy)-3,5-difluorobenzyl)oxy)-1-methyl-2,3-dihydroimida-zo[1,2-c]pyrimidin-5(1H)-one]
≤ 0.01	≤ 0.1	CC(C)N1CCn2c1cc(OCc1ccc(Oc3ccc(Cl)c(C(F)(F)F)c3)cc1)nc2=O [Example E59, 7-((4-(4-chloro-3-(trifluoromethyl)phenoxy)benzyl)oxy)-1-isopropyl-2,3-dihydroim-idazo[1,2-c]pyrimidin-5(1H)-one]
≤ 0.01	≤ 1	CC(C)N1CCn2c1cc(OCc1ccc(Oc3ccc(F)c(F)c3)c(C#N)c1)nc2=O [Example E53, 2-(3,4-difluorophenoxy)-5-(((1-isopropyl-5-oxo-1,2,3,5-tetrahydroimidazo[1,2-c]pyrimidin-7-yl)oxy)methyl)benzonitrile]
≤ 0.01	≤ 1	CN1CCn2c1cc(OCc1cc(F)c(Oc3ccc(C(F)(F)F)nc3)c(F)c1)nc2=O [Example E2, 7-((3,5-difluoro-4-((6-(trifluoromethyl)pyridin-3-yl)oxy)benzyl)oxy)-1-methyl-2,3-dihydroimidazo[1,2-c]pyrimidin-5(1H)-one]
≤ 0.01	≤ 1	CN1CCn2c1cc(OCc1ccc(Oc3ccc(F)c(Cl)c3)c(F)c1)nc2=O [Example E15, 7-((4-(3-chloro-4-fluorophenoxy)-3-fluorobenzyl)oxy)-1-methyl-2,3-dihydroimida-zo[1,2-c]pyrimidin-5(1H)-one]
< 0.000501	≤ 0.1	CN1CCn2c1cc(OCc1ccc(Oc3ccc(C#N)c(C(F)(F)F)c3)c(C#N)c1)nc2=O [Example E78, 4-(2-cyano-4-(((l-methyl-5-oxo-1,2,3,5-tetrahydroimidazo[1,2-c]pyrimidin-7-yl)oxy)methyl)phenoxy)-2-(trifluoromethyl)benzonitrile]
≤ 0.01	≤ 1	CN1CCn2c1cc(OCc1ccc(Oc3cccc(F)c3)c(C#N)c1)nc2=O [Example E18, 2-(3-fluorophenoxy)-5-(((1-methyl-5-oxo-1,2,3,5-tetrahydroimidazo[1,2-c]pyrimidin-7-yl)oxy)methyl)benzonitrile]
